# In US20120263849A1, “BITTERNESS SUPPRESSION METHOD” (KAO CORPORATION, priority 2010, published 2012):
# Assay: Sensory test of bitterness, agent added to quinine sulfate standard solutions
# Assay type: in vivo, people
# Conditions: summary of Tables 2 to 4 (quinine sulfate and catechin test solutions)
# Description: The bitterness suppression agent of the present invention may be applied to any substance without any particular limitation as long as the substance contains a bitter component. It is preferably applied to a composition having a bitterness having a bitterness intensity of 7 or less based on the quinine sulfate standard solution. […] More specifically, the bitterness intensity is determined by the following procedure. […] Then, the values of bitterness intensity determined by each subject are averaged out and provided as the bitterness intensity of the test substance. […]
# Five subjects conducted a sensory test with reference to the bitterness level of each test solution using the quinine sulfate standard solutions shown in the following Table 1 as a standard, and an average score of the evaluation scores submitted by each subject was calculated. […]
smiles,measurement,value
COC(=O)c1ccccc1O [methyl salicylate],Suppression of bitterness (summary in words),effective suppression of bitterness without impairing the original taste and flavor
